Patent US8623326B2 (University of Western Ontario, priority 2008, dated 2014)
Where a SMILES comes first, the peptide text is derived from it. [ ]: non-standard residue; d: D form. The star is where a group is joined. Dap = NC[C@H](N)C(=O)O; X1 = O=C(CCCCCF)*

Target: T1, GHSR (Homo sapiens, UniProt Q92847)
T1 construct: expressed in transfected cells; host or cells: CHO-K1
Test: Radioligand binding assay (125I-ghrelin displacement)
Settings: 125I-ghrelin (human) radioligand; for IC50: read-out: IC50 (nM), binding affinity of fluorine bearing ghrelin analogues, human recombinant CHO-K1 cells as receptor source, 18a-c semi-quantitative from % inhibition at 10^-5 to 10^-8 M, duplicated
Procedure: Radioligand Binding Assay.
IC50 values were determined by a non-linear, least squares regression analysis using MathIQ™ (ID Business Solutions Ltd., UK).

T1 sequence (Q92847 whole entry): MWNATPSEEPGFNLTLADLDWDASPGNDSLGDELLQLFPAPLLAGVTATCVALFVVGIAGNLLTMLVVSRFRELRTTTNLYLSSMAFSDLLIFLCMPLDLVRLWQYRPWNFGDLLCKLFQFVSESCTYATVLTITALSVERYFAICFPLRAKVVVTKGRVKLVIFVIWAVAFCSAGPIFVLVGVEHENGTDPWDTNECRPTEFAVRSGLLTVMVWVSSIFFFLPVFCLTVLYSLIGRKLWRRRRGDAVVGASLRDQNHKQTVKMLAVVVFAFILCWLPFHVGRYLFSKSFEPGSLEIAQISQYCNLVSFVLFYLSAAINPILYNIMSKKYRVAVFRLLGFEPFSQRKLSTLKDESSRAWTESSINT

**Q.** For CC(C)C[C@H](NC(=O)[C@H](Cc1ccccc1)NC(=O)[C@H](CNC(=O)CCCCCF)NC(=O)[C@H](CO)NC(=O)CN)C(=O)N[C@@H](CO)C(=O)N1CCC[C@H]1C(=O)N[C@@H](CCC(=O)O)C(=O)N[C@@H](Cc1c[nH]cn1)C(=O)N[C@@H](CCC(N)=O)C(=O)N[C@@H](CCCNC(=N)N)C(=O)N[C@H](C(=O)N[C@@H](CCC(N)=O)C(=O)N[C@@H](CCC(N)=O)C(N)=O)C(C)C [Cmpd 18a, Ghrelin(1-14)-6C—F], which IC50 is on record?
**A.** The IC50 was 147 nM.

**Q.** With CC(C)C[C@H](NC(=O)[C@H](Cc1ccccc1)NC(=O)[C@H](CNC(=O)CCCCCCCCCCCF)NC(=O)[C@H](CO)NC(=O)CN)C(=O)N[C@@H](CO)C(=O)N1CCC[C@H]1C(=O)N[C@@H](CCC(=O)O)C(=O)N[C@@H](Cc1c[nH]cn1)C(=O)N[C@@H](CCC(N)=O)C(=O)N[C@@H](CCCNC(=N)N)C(=O)N[C@H](C(=O)N[C@@H](CCC(N)=O)C(=O)N[C@@H](CCC(N)=O)C(N)=O)C(C)C [Cmpd 18c, Ghrelin(1-14)-12C—F] as the molecule, how does the IC50 read?
**A.** The IC50 was 27.9 nM.

**Q.** CC(C)C[C@H](NC(=O)[C@H](Cc1ccccc1)NC(=O)[C@H](CNC(=O)CCCCCF)NC(=O)[C@H](CO)NC(=O)CN)C(N)=O [Cmpd 17, Ghrelin(1-5)-6C—F] (H-GS[Dap](X1)FL-NH2) was tested. Which inhibition at 2 µM (at 2000 nM) did it give?
**A.** Its inhibition at 2 µM is about 20%.

**Q.** With CC(C)C[C@H](NC(=O)[C@H](Cc1ccccc1)NC(=O)[C@H](CNC(=O)CCCCCCCCF)NC(=O)[C@H](CO)NC(=O)CN)C(=O)N[C@@H](CO)C(=O)N1CCC[C@H]1C(=O)N[C@@H](CCC(=O)O)C(=O)N[C@@H](Cc1c[nH]cn1)C(=O)N[C@@H](CCC(N)=O)C(=O)N[C@@H](CCCNC(=N)N)C(=O)N[C@H](C(=O)N[C@@H](CCC(N)=O)C(=O)N[C@@H](CCC(N)=O)C(N)=O)C(C)C [Cmpd 18b, Ghrelin(1-14)-9C—F] as the molecule, how does the IC50 read?
**A.** Its IC50 is 39.6 nM.
